Reference: PMC9104950, “Stereoselective Covalent Adduct Formation of Acyl Glucuronide Metabolite of Nonsteroidal Anti-Inflammatory Drugs with UDP-Glucuronosyltransferase” (International Journal of Molecular Sciences, 2022)

What was measured:
[1] = design: method as in PMID 20606003, PMID 1673415; conditions: phosphate buffers (pH 7.4); cited from earlier work
UGT2B7 = biological target: T1, UGT2B7 (Homo sapiens, UniProt P16662); assay: Covalent adduct formation of NSAIDs-AG with UGT2B7; type: binding; conditions: 180 μM, UGT 3.4 μM, 6 h; for covalent adduct formation with UGT2B7 compared with the other diastereomer: R vs S diastereomer
T1 construct: purchased Corning, Inc
T1 sequence (P16662 24-529): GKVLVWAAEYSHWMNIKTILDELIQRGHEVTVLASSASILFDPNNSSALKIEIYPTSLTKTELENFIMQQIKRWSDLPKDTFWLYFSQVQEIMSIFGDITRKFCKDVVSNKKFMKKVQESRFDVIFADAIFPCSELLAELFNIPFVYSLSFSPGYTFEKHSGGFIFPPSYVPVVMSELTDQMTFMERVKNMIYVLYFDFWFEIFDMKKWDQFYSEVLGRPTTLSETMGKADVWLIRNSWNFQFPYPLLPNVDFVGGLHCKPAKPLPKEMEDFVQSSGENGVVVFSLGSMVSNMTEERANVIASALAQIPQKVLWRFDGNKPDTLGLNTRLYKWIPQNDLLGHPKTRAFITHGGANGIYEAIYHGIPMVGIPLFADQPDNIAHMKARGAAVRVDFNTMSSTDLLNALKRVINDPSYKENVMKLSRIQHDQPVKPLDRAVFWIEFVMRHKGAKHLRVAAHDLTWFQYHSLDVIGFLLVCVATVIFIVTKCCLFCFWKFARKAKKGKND
Experimental: (§1) The concentrations of UGT were set at 3.4 μM by the preliminary experiments on the linearity of covalent adduct formation. The covalent adduct formation of NSAIDs-AG with organelle proteins and UGT was determined according to previous reports on NSAIDs-AG with albumin with some modifications. After a deproteinization of the reaction mixture, methanol/diethyl ether (3:1) was added to the pellet. […] The concentrations of the parent NSAIDs were measured using liquid chromatography-tandem mass spectrometry (LC-MS/MS). Aliquots of 10 μL were injected into the LC-MS/MS system. The LC-MS/MS equipment consisted of an LC system (UltiMate 3000 series, Thermo Fisher Scientific, Inc.) and TSQ Endura Triple Quadrupole Mass Spectrometer with electrospray ionization (Thermo Fisher Scientific, Inc.). Finnigan Xcalibur software (Thermo Fisher Scientific, Inc.) was used for data recording and analysis. Analysis was further performed using a reversed-phase column (COSMOSIL 5C18-MSII, 2.0 mm × 150 mm, 5 μm; Nacalai Tesque, Inc.). The column temperature was set to 40 °C, and the autosampler was maintained at 10 °C. The mobile phase (A; 30% methanol in 8.5 mM ammonium formate and 0.0075% formic acid, and B; 90% methanol in 8.5 mM ammonium formate and 0.0075% formic acid) was pumped at a flow rate of 0.2 mL/min. The initial mobile phase composition was maintained at 30% mobile phase B for 1 min, changed linearly to 90% mobile phase B from 1 to 8 min, maintained for 1 min, returned to 30% mobile phase B from 9 to 10 min, and maintained for 1 min for chromatographic column equilibrium. The MS scan was operated in positive ionization mode for DIC, MEF, ZOM, KET, and NAP, or negative ionization mode, for FLU. The conditions for electrospray ionization were set at 3500 V spray voltage for positive ionization mode and 2500 V spray voltage for negative ionization mode at 400 °C capillary temperature, and 300 °C vaporizer temperature with 40 arbitrary units of nitrogen sheath gas and 10 arbitrary units of auxiliary gas. The MS scan was operated in the positive or negative ionization mode. The selected reaction monitoring (SRM) mode was used, with argon as the collision gas at 1.5 mTorr. The mass resolution was set at 0.7 full-width at half-height (unit resolution). SRM transitions (precursor and product ions) were mass to charge ratios of (m/z) 296 > 214 for DIC (positive ionization mode), 294 > 250 for DIC (negative ionization mode), 242 > 224 for MEF, 292 > 139 for ZOM, 243 > 198 for R- and S-FLU, 255 > 209 for R- and S-KET, 231 > 185 for R- and S-NAP, and 302 > 220 for DIC-d4. The collision energies were 15 V for DIC (negative ionization mode), ZOM, MEF, FLU, KET, and NAP; 35 V for DIC (positive ionization mode); and DIC-d4. The concentrations of NSAIDs were determined from a single-point calibration in every assay for NSAIDs after confirmation of linearity between area and concentrations of NSAIDs.

UGT2B4 = biological target: T2, UGT2B4 (Homo sapiens, UniProt P06133); assay: Covalent adduct formation of NSAIDs-AG with UGT2B4; type: binding; conditions: 180 μM, UGT 3.4 μM, 6 h
T2 construct: purchased Corning, Inc
T2 sequence (P06133 24-528): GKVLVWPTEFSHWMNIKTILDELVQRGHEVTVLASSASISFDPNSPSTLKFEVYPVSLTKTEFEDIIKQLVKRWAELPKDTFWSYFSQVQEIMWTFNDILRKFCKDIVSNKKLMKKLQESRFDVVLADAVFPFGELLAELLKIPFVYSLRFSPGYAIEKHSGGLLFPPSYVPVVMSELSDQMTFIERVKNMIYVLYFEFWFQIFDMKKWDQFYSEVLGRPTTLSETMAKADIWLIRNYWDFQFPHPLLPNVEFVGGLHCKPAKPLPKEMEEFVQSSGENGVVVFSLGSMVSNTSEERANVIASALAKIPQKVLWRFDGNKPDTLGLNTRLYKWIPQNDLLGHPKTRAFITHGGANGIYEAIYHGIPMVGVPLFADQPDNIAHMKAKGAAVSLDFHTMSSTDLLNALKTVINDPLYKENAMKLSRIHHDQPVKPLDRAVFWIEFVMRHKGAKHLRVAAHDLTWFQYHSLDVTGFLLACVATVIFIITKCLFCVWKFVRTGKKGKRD
Experimental: as §1

UGT1A1 = biological target: T3, UGT1A1 (Homo sapiens, UniProt P22309); assay: Covalent adduct formation of NSAIDs-AG with UGT1A1; type: binding; conditions: R vs S diastereomer; 180 μM, UGT 3.4 μM, 6 h
T3 construct: purchased Corning, Inc
T3 sequence (P22309 26-533): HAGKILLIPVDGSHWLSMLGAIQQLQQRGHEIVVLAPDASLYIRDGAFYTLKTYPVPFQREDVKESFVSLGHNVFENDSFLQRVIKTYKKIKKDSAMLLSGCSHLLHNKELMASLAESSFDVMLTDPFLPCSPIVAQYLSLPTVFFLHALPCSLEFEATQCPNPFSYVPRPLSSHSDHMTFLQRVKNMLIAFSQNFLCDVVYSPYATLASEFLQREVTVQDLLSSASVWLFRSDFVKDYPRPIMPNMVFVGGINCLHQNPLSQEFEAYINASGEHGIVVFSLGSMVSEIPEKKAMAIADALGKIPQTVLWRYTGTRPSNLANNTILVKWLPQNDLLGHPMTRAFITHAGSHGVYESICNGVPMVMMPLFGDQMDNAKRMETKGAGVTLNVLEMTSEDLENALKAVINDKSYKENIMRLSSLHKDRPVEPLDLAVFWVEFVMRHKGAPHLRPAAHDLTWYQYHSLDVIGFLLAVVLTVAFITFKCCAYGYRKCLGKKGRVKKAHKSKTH
Experimental: as §1, with “The conditions for electrospray ionization were set at 3500 V spray voltage for positive ionization mode and 2500 V spray voltage for negative ionization mode at 400 °C capillary temperature, and 300 °C vaporizer temperature with 40 arbitrary units of nitrogen sheath gas and 10 arbitrary units of auxiliary gas. The MS scan was operated in the positive or negative ionization mode. The selected reaction monitoring (SRM) mode was used, with argon as the collision gas at 1.5 mTorr. The mass resolution was set at 0.7 full-width at half-height (unit resolution). SRM transitions (precursor and product ions) were mass to charge ratios of (m/z) 296 > 214 for DIC (positive ionization mode), 294 > 250 for DIC (negative ionization mode), 242 > 224 for MEF, 292 > 139 for ZOM, 243 > 198 for R- and S-FLU, 255 > 209 for R- and S-KET, 231 > 185 for R- and S-NAP, and 302 > 220 for DIC-d4. The collision energies were 15 V for DIC (negative ionization mode), ZOM, MEF, FLU, KET, and NAP; 35 V for DIC (positive ionization mode); and DIC-d4.” left out

UGT1A9 = biological target: T4, UGT1A9 (Homo sapiens, UniProt O60656); assay: Covalent adduct formation of NSAIDs-AG with UGT1A9; type: binding; conditions: R vs S diastereomer; 180 μM, UGT 3.4 μM, 6 h
T4 construct: purchased Corning, Inc
T4 sequence (O60656 26-530): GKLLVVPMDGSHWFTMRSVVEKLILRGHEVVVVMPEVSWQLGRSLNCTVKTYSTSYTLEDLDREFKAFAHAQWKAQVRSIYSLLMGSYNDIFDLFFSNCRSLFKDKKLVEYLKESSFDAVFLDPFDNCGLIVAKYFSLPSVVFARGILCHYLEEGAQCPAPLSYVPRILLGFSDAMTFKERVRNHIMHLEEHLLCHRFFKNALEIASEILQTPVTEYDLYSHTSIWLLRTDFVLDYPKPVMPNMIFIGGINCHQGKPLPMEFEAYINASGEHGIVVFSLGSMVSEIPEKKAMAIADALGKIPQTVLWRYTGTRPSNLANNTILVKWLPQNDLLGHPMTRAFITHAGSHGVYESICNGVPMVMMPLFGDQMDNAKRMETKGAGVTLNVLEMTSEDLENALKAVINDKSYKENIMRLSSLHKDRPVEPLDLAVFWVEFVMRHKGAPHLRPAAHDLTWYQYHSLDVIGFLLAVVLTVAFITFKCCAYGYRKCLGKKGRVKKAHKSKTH
Experimental: as §1, with “The conditions for electrospray ionization were set at 3500 V spray voltage for positive ionization mode and 2500 V spray voltage for negative ionization mode at 400 °C capillary temperature, and 300 °C vaporizer temperature with 40 arbitrary units of nitrogen sheath gas and 10 arbitrary units of auxiliary gas. The MS scan was operated in the positive or negative ionization mode. The selected reaction monitoring (SRM) mode was used, with argon as the collision gas at 1.5 mTorr. The mass resolution was set at 0.7 full-width at half-height (unit resolution). SRM transitions (precursor and product ions) were mass to charge ratios of (m/z) 296 > 214 for DIC (positive ionization mode), 294 > 250 for DIC (negative ionization mode), 242 > 224 for MEF, 292 > 139 for ZOM, 243 > 198 for R- and S-FLU, 255 > 209 for R- and S-KET, 231 > 185 for R- and S-NAP, and 302 > 220 for DIC-d4. The collision energies were 15 V for DIC (negative ionization mode), ZOM, MEF, FLU, KET, and NAP; 35 V for DIC (positive ionization mode); and DIC-d4.” left out

SMILES	half-lives in buffers [1]	amounts of covalent adducts with UGT2B7 compared with UGT1A9 (UGT2B7)	covalent adduct formation with UGT2B7 (UGT2B7; 37 °C)	amounts of covalent adducts with UGT2B (UGT2B7) relative to UGT1A isoforms (UGT2B7)	amounts of covalent adducts with UGT2B (UGT2B4) relative to UGT1A isoforms (UGT2B4)	covalent adduct formation with UGT1A1 compared with the other diastereomer (UGT1A1)	covalent adduct formation with UGT2B7 compared with the other diastereomer (UGT2B7)	covalent adduct formation with UGT1A9 compared with the other diastereomer (UGT1A9)
Cc1cc(CC(=O)O[C@@H]2O[C@H](C(=O)O)[C@@H](O)[C@H](O)[C@H]2O)n(C)c1C(=O)c1ccc(Cl)cc1 [ZOM-AG]	relatively short half-lives	significantly higher amounts of covalent adducts	higher amounts of covalent adducts	–	–	–	–	–
CC(C(=O)OC1OC(C(=O)O)C(O)C(O)C1O)c1ccc(-c2ccccc2)c(F)c1 (stereo not shown) [R-FLU-AG]	–	–	–	relatively higher amounts of covalent adducts	relatively higher amounts of covalent adducts	–	–	–
COc1ccc2cc(C(C)C(=O)OC3OC(C(=O)O)C(O)C(O)C3O)ccc2c1 (stereo not shown) [R-NAP-AG]	–	–	–	relatively higher amounts of covalent adducts	relatively higher amounts of covalent adducts	significantly more covalent adducts	significantly more covalent adducts	significantly more covalent adducts
CC(C(=O)OC1OC(C(=O)O)C(O)C(O)C1O)c1ccc(-c2ccccc2)c(F)c1 (stereo not shown) [S-FLU-AG]	–	–	–	–	–	significantly higher	significantly higher	significantly higher
